pIC50: −log10 of the molar value.
How the values were obtained:
Format in all cases: functional
Cavia porcellus [1] = species: Cavia porcellus; test: The compound was tested for […] activity against guinea pig detrusor (bladder) strip mildly depolarized with 15 mM KCl
Cavia porcellus [2] = species: Cavia porcellus; test: The compound was tested for […] activity against guinea pig vascular tissue (portal vein) strip mildly depolarized with 15 mM KCl
Cavia porcellus [3] = species: Cavia porcellus; test: Tested for percent increase of efflux rate constant of 50 uM of compound using guinea pig detrusor
Cavia porcellus [4] = species: Cavia porcellus; test: The compound was tested for […] activity against guinea pig detrusor (bladder) strip contracted with 80 mM KCl

O=C1CCCC2=C1C(c1ccc(F)c(Cl)c1)C1=C(O)CCCC1=N2 (stereo not drawn)
pIC50 (Cavia porcellus [1]): 6.34

O=C1CCCC2=C1C(c1ccc(-c3ccccc3)cc1)C1=C(O)CCCC1=N2 (stereo not drawn)
pIC50 (Cavia porcellus [1]): 5.86

O=C1CCCC2=C1C(c1cc([N+](=O)[O-])cs1)C1=C(O)CCCC1=N2 (stereo not drawn)
pIC50 (Cavia porcellus [2]): 8.05 | pIC50 (Cavia porcellus [1]): 6.80

O=C1CCCC2=C1C(c1cccc([N+](=O)[O-])c1)C1=C(O)CCCC1=N2 (stereo not drawn)
pIC50 (Cavia porcellus [2]): 7.00 | pIC50 (Cavia porcellus [1]): 5.35 | Increase (Cavia porcellus [3]): 30.7% | pIC50 (Cavia porcellus [4]): 4.32

N#Cc1ccc(C2C3=C(O)CCCC3=NC3=C2C(=O)CCC3)cc1C(F)(F)F (stereo not drawn)
pIC50 (Cavia porcellus [1]): 6.38

COC(=O)C1=C(C)NC(C)=C(C(=O)OCCCN2CCC(c3ccccc3)(c3ccccc3)CC2)[C@@H]1c1cccc([N+](=O)[O-])c1 [DEXNIGULDIPINE]
pIC50 (Cavia porcellus [1]): < 4.52

COC(=O)C1=C(C)NC(C)=C(C(=O)OCCCN2CCC(c3ccccc3)(c3ccccc3)CC2)[C@H]1c1cccc([N+](=O)[O-])c1 [NIGULDIPINE]
pIC50 (Cavia porcellus [1]): < 4.52

O=[N+]([O-])c1cccc(C2C3=C(CCCC3)N=C3CCCC(O)=C32)c1 (stereo not drawn)
pIC50 (Cavia porcellus [1]): 6.29

CC1=CC(c2cccc([N+](=O)[O-])c2)C2=C(O)CCCC2=N1 (stereo not drawn)
pIC50 (Cavia porcellus [1]): 6.18

Source: ChEMBL document CHEMBL1127164, “Dihydropyridine KATP potassium channel openers” (Bioorg Med Chem Lett, 1993)
